Results reported in ChEMBL document CHEMBL1201862, “PubChem BioAssay data set” (2004).
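Each compound was tested at five concentrations against cells in 96-well plates for 48 hours. Abbreviation: GI50, concentration required for 50% inhibition of growth.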 Activity calls are given as the source filed them. No stated cut-off is given here; in the data, active = GI50 up to about 1.1 µM and inactive = higher.

Key:
Experiment in all cases: NCI anticancer screen, dose series, 48 h
RPMI-8226 = tested on: RPMI-8226
SR = tested on: SR
SF-295 = tested on: SF-295
ACHN = tested on: ACHN
NCI-H522 = tested on: NCI-H522
HCT-116 = tested on: HCT-116
M19-MEL = tested on: M19-MEL
SF-268 = tested on: SF-268
UACC-62 = tested on: UACC-62
CCRF-CEM = tested on: CCRF-CEM
KM12 = tested on: KM12
SNB-19 = tested on: SNB-19
UO-31 = tested on: UO-31
IGROV-1 = tested on: IGROV-1
SK-OV-3 = tested on: SK-OV-3
U-251 = tested on: U-251
UACC-257 = tested on: UACC-257
OVCAR-8 = tested on: OVCAR-8
SN12C = tested on: SN12C
OVCAR-3 = tested on: OVCAR-3
RXF 631 = tested on: RXF 631
HOP-92 = tested on: HOP-92
HCC 2998 = tested on: HCC 2998
NCI-H460 = tested on: NCI-H460
TK-10 = tested on: TK-10
SNB-78 = tested on: SNB-78
A549 = tested on: A549
DMS-114 = tested on: DMS-114
HOP-62 = tested on: HOP-62
LOX IMVI = tested on: LOX IMVI
EKVX = tested on: EKVX
OVCAR-5 = tested on: OVCAR-5
SK-MEL-5 = tested on: SK-MEL-5
HOP-18 = tested on: HOP-18
M14 = tested on: M14
786-0 = tested on: 786-0
MOLT-4 = tested on: MOLT-4
SF-539 = tested on: SF-539
CAKI-1 = tested on: CAKI-1
DLD-1 = tested on: DLD-1
K562 = tested on: K562
COLO 205 = tested on: COLO 205
A498 = tested on: A498
Malme-3M = tested on: Malme-3M
KM-20L2 = tested on: KM-20L2
NCI-H23 = tested on: NCI-H23
LXFL 529 = tested on: LXFL 529
DMS-273 = tested on: DMS-273
SK-MEL-28 = tested on: SK-MEL-28
NCI-H226 = tested on: NCI-H226
SK-MEL-2 = tested on: SK-MEL-2
SW-620 = tested on: SW-620
SNB-75 = tested on: SNB-75
HT-29 = tested on: HT-29
OVCAR-4 = tested on: OVCAR-4
MDA-MB-435 = tested on: MDA-MB-435
MCF7 = tested on: MCF7
Hs-578T = tested on: Hs-578T
HL-60 = tested on: HL-60
T47D = tested on: T47D
BT-549 = tested on: BT-549
DU-145 = tested on: DU-145
PC-3 = tested on: PC-3
NCI/ADR-RES = tested on: NCI/ADR-RES
MDA-N = tested on: MDA-N
XF498 = tested on: XF498
RXF 393 = tested on: RXF 393
MDA-MB-231 = tested on: MDA-MB-231
HCT-15 = tested on: HCT-15

**Q.** For `COc1cccc(NC(=O)CC(=O)N2NC(C)C(/N=N/c3cccc(C(=O)O)c3)C2=O)c1` (stereo not drawn), which GI50 (RPMI-8226) is on record?
**A.** The GI50 was > 100 µM (inactive).

**Q.** What about the GI50 (SR) of the same compound?
**A.** Its GI50 is > 100 µM (inactive).

**Q.** And the GI50 (SF-295)?
**A.** The GI50 was > 100 µM (inactive).

**Q.** And the GI50 (ACHN)?
**A.** The GI50 was > 100 µM (inactive).

**Q.** What about the GI50 (NCI-H522) of the same compound?
**A.** Its GI50 is > 100 µM (inactive).

**Q.** What about the GI50 (HCT-116) of the same compound?
**A.** The GI50 was > 100 µM (inactive).

**Q.** What about the GI50 (M19-MEL) of the same compound?
**A.** The GI50 was > 100 µM (inactive).

**Q.** And the GI50 (SF-268)?
**A.** The GI50 was > 100 µM (inactive).

**Q.** What about the GI50 (UACC-62) of the same compound?
**A.** Its GI50 is > 100 µM (inactive).

**Q.** What about the GI50 (CCRF-CEM) of the same compound?
**A.** Its GI50 is > 100 µM (inactive).

**Q.** What about the GI50 (KM12) of the same compound?
**A.** The GI50 was > 100 µM (inactive).

**Q.** What about the GI50 (SNB-19) of the same compound?
**A.** The GI50 was > 100 µM (inactive).

**Q.** What about the GI50 (UO-31) of the same compound?
**A.** The GI50 was > 100 µM (inactive).

**Q.** And the GI50 (IGROV-1)?
**A.** The GI50 was > 100 µM (inactive).

**Q.** What about the GI50 (SK-OV-3) of the same compound?
**A.** Its GI50 is > 100 µM (inactive).

**Q.** And the GI50 (U-251)?
**A.** Its GI50 is > 100 µM (inactive).

**Q.** And the GI50 (UACC-257)?
**A.** Its GI50 is > 100 µM (inactive).

**Q.** What about the GI50 (OVCAR-8) of the same compound?
**A.** The GI50 was > 100 µM (inactive).

**Q.** What about the GI50 (SN12C) of the same compound?
**A.** The GI50 was > 100 µM (inactive).

**Q.** What about the GI50 (OVCAR-3) of the same compound?
**A.** Its GI50 is > 100 µM (inactive).

**Q.** What about the GI50 (RXF 631) of the same compound?
**A.** Its GI50 is > 100 µM (inactive).

**Q.** And the GI50 (HOP-92)?
**A.** The GI50 was > 100 µM (inactive).

**Q.** And the GI50 (HCC 2998)?
**A.** The GI50 was > 100 µM (inactive).

**Q.** And the GI50 (NCI-H460)?
**A.** The GI50 was > 100 µM (inactive).

**Q.** And the GI50 (TK-10)?
**A.** The GI50 was > 100 µM (inactive).

**Q.** What about the GI50 (SNB-78) of the same compound?
**A.** The GI50 was > 100 µM (inactive).

**Q.** And the GI50 (A549)?
**A.** Its GI50 is > 100 µM (inactive).

**Q.** What about the GI50 (DMS-114) of the same compound?
**A.** Its GI50 is > 100 µM (inactive).

**Q.** And the GI50 (HOP-62)?
**A.** Its GI50 is > 100 µM (inactive).

**Q.** And the GI50 (LOX IMVI)?
**A.** The GI50 was > 100 µM (inactive).

**Q.** What about the GI50 (EKVX) of the same compound?
**A.** The GI50 was > 100 µM (inactive).

**Q.** What about the GI50 (OVCAR-5) of the same compound?
**A.** Its GI50 is > 100 µM (inactive).

**Q.** What about the GI50 (SK-MEL-5) of the same compound?
**A.** The GI50 was > 100 µM (inactive).

**Q.** And the GI50 (HOP-18)?
**A.** The GI50 was 17.9 µM (inactive).

**Q.** What about the GI50 (M14) of the same compound?
**A.** The GI50 was > 100 µM (inactive).

**Q.** What about the GI50 (786-0) of the same compound?
**A.** Its GI50 is > 100 µM (inactive).

**Q.** And the GI50 (MOLT-4)?
**A.** Its GI50 is > 100 µM (inactive).

**Q.** And the GI50 (SF-539)?
**A.** Its GI50 is > 100 µM (inactive).

**Q.** And the GI50 (CAKI-1)?
**A.** Its GI50 is > 100 µM (inactive).

**Q.** What about the GI50 (DLD-1) of the same compound?
**A.** The GI50 was > 100 µM (inactive).

**Q.** And the GI50 (K562)?
**A.** Its GI50 is > 100 µM (inactive).

**Q.** And the GI50 (COLO 205)?
**A.** Its GI50 is > 100 µM (inactive).

**Q.** What about the GI50 (A498) of the same compound?
**A.** Its GI50 is > 100 µM (inactive).

**Q.** And the GI50 (Malme-3M)?
**A.** Its GI50 is > 100 µM (inactive).

**Q.** What about the GI50 (KM-20L2) of the same compound?
**A.** Its GI50 is > 100 µM (inactive).

**Q.** And the GI50 (NCI-H23)?
**A.** Its GI50 is > 100 µM (inactive).

**Q.** What about the GI50 (LXFL 529) of the same compound?
**A.** The GI50 was > 100 µM (inactive).

**Q.** And the GI50 (DMS-273)?
**A.** Its GI50 is > 100 µM (inactive).

**Q.** What about the GI50 (SK-MEL-28) of the same compound?
**A.** Its GI50 is > 100 µM (inactive).

**Q.** What about the GI50 (NCI-H226) of the same compound?
**A.** Its GI50 is > 100 µM (inactive).

**Q.** And the GI50 (SK-MEL-2)?
**A.** Its GI50 is > 100 µM (inactive).

**Q.** And the GI50 (SW-620)?
**A.** Its GI50 is > 100 µM (inactive).

**Q.** What about the GI50 (SNB-75) of the same compound?
**A.** Its GI50 is > 100 µM (inactive).

**Q.** And the GI50 (HT-29)?
**A.** The GI50 was > 100 µM (inactive).

**Q.** And the GI50 (OVCAR-4)?
**A.** Its GI50 is > 100 µM (inactive).

**Q.** What does the source list for `CSC(=Nc1nnc(-c2ccc([N+](=O)[O-])cc2)s1)SC`?
**A.** GI50 (MDA-MB-435): > 67.1 µM (inactive); GI50 (RPMI-8226): > 100 µM (inactive); GI50 (SR): > 100 µM (inactive); GI50 (SF-295): 18.5 µM (inactive); GI50 (ACHN): 42.9 µM (inactive); GI50 (NCI-H522): 15.5 µM (inactive); GI50 (HCT-116): 27.4 µM (inactive); GI50 (MCF7): 36.6 µM (inactive); GI50 (M19-MEL): > 100 µM (inactive); GI50 (SF-268): 16.7 µM (inactive); GI50 (UACC-62): 25.8 µM (inactive); GI50 (CCRF-CEM): > 100 µM (inactive); GI50 (Hs-578T): 28.3 µM (inactive); GI50 (KM12): > 94.8 µM (inactive); GI50 (HL-60): > 100 µM (inactive); GI50 (SNB-19): 23.9 µM (inactive); GI50 (UO-31): 27.9 µM (inactive); GI50 (T47D): 17.8 µM (inactive); GI50 (IGROV-1): 27.9 µM (inactive); GI50 (SK-OV-3): 27.6 µM (inactive); GI50 (U-251): 21.4 µM (inactive); GI50 (UACC-257): > 93.1 µM (inactive); GI50 (OVCAR-8): 34.4 µM (inactive); GI50 (BT-549): > 77.4 µM (inactive); GI50 (SN12C): 52.2 µM (inactive); GI50 (OVCAR-3): 57.3 µM (inactive); GI50 (HOP-92): 9.25 µM (inactive); GI50 (HCC 2998): > 79.6 µM (inactive); GI50 (NCI-H460): > 89.1 µM (inactive); GI50 (TK-10): 16.6 µM (inactive); GI50 (SNB-78): 12.4 µM (inactive); GI50 (A549): 46.8 µM (inactive); GI50 (DMS-114): 25.9 µM (inactive); GI50 (HOP-62): 20.1 µM (inactive); GI50 (LOX IMVI): 31.9 µM (inactive); GI50 (EKVX): 54.5 µM (inactive); GI50 (DU-145): > 100 µM (inactive); GI50 (OVCAR-5): > 100 µM (inactive); GI50 (SK-MEL-5): 55.7 µM (inactive); GI50 (HOP-18): 5.64 µM (inactive); GI50 (M14): > 90.6 µM (inactive); GI50 (786-0): 20.7 µM (inactive); GI50 (MOLT-4): > 100 µM (inactive); GI50 (PC-3): > 41.9 µM (inactive); GI50 (SF-539): 18.1 µM (inactive); GI50 (CAKI-1): 16.7 µM (inactive); GI50 (DLD-1): 34.7 µM (inactive); GI50 (K562): > 100 µM (inactive); GI50 (COLO 205): > 100 µM (inactive); GI50 (NCI/ADR-RES): 33.5 µM (inactive); GI50 (MDA-N): > 72.9 µM (inactive); GI50 (A498): 31.4 µM (inactive); GI50 (Malme-3M): > 74.1 µM (inactive); GI50 (KM-20L2): > 100 µM (inactive); GI50 (XF498): 21.6 µM (inactive); GI50 (NCI-H23): 27.8 µM (inactive); GI50 (LXFL 529): 37 µM (inactive); GI50 (DMS-273): 41.1 µM (inactive); GI50 (RXF 393): 20 µM (inactive); GI50 (SK-MEL-28): 77.4 µM (inactive); GI50 (NCI-H226): 33.7 µM (inactive); GI50 (MDA-MB-231): > 58.5 µM (inactive); GI50 (SK-MEL-2): 26.7 µM (inactive); GI50 (HCT-15): > 95.5 µM; GI50 (SW-620): > 100 µM (inactive); GI50 (SNB-75): 11.9 µM (inactive); GI50 (HT-29): > 100 µM (inactive); GI50 (OVCAR-4): 45.8 µM (inactive)
